According to US7691416B2, “Methods of treating vascular disease” (priority 2002, dated 2010):

What was measured:
JNK-1 and -2 = assay: Western blot of phosphorylated JNK in SMC; assay type: cell-based; conditions: SMC exposed to CO (250 ppm)
From the text: (§1) Animals. Male (250-350 g) Brown Norway rats (RT1^n) were used as aortic graft donors and male (250-350 g) Lewis rats (RT11) as recipients. Dawley (400-450 g) rats were used in the balloon injury model. Adult male C57BL/6, C57/S129, p21^−/− and p53^−/− null mice were purchased from Jackson Laboratory (Bar Harbor, Me.). mkk3^(−/−) null mice were generated as described Lu et al. (EMBO. 18:1845-1857 (1999)). The inos^−/− and enos^−/− mice were bred at the University of Pittsburgh. Aortic transplant model. Aortic transplantation was performed as described in Shimizu et al. (Nat. Med. 7:738-741 (2001)). Briefly, 3 to 4 cm of descending aorta was harvested from the donor and implanted between the renal arteries and the aortic bifurcation of the recipient. Both edges of the native abdominal aorta were ligated. Balloon injury model. Balloon angioplasty was carried out as described in Murakami et al. (Atherosclerosis 157:361-368 (2001)). […] [^3H]thymidine incorporation was measured by scintillation spectroscopy and presented as mean counts/min/well. […] Areas from eight to ten captured images were calculated using digital imaging software as number of pixels corresponding to those areas. Twenty-four to forty-eight sections from each group were statistically analyzed with SPSS software version 10. […]

p21Cip1 = assay: Western blot of p21Cip1 expression; assay type: cell-based, mouse
From the text: (§2) Animals. Male (250-350 g) Brown Norway rats (RT1^n) were used as aortic graft donors and male (250-350 g) Lewis rats (RT11) as recipients. Dawley (400-450 g) rats were used in the balloon injury model. Adult male C57BL/6, C57/S129, p21^−/− and p53^−/− null mice were purchased from Jackson Laboratory (Bar Harbor, Me.). mkk3^(−/−) null mice were generated as described Lu et al. (EMBO. 18:1845-1857 (1999)). The inos^−/− and enos^−/− mice were bred at the University of Pittsburgh. Aortic transplant model. Aortic transplantation was performed as described in Shimizu et al. (Nat. Med. 7:738-741 (2001)). Briefly, 3 to 4 cm of descending aorta was harvested from the donor and implanted between the renal arteries and the aortic bifurcation of the recipient. Both edges of the native abdominal aorta were ligated. Balloon injury model. Balloon angioplasty was carried out as described in Murakami et al. (Atherosclerosis 157:361-368 (2001)). Briefly, a 2 Fr. arterial embolectomy catheter (Baxter, Chicago, Ill.) was inserted into the common carotid artery, and injury was created by inflating the balloon to 5 atmospheres of pressure for 5 minutes. The arteries were flushed and the external carotid artery was ligated, ensuring return of blood flow through the common and internal carotid arteries. Injury of the vessel wall and subsequent pathological analysis was made in a manner that was blinded to the treatment group. CO exposure. CO was delivered to animals as described in Otterbein et al. (Nat. Med. 6:422-428 (2000)). Graft donors and recipients were exposed to CO (250 ppm) for two days before transplantation and for 56 days immediately following transplantation. In the balloon injury model, rats received either no pretreatment or were exposed to CO (250 ppm) for one hour prior to injury. Following surgery rats were housed in room air for two weeks. Cells. Primary mouse and rat smooth muscle cells (SMC) were isolated and cultured as described in Laubach et al. (Proc Natl Acad Sci USA 92:10688-9 (1995)). Mouse SMC isolated from HO-1^−/− mice were obtained as described in Duckers et al. (Nat. Med. 7:693-698 (2001)). Cell treatment and reagents. Guanylate cyclase inhibitor 1H(1,2,4) oxadiazolo(4,3-a)quinoxalin-1 (ODQ; Calbiochem-Novabiochem, San Diego, Calif.; 10-100 μM) and p38 MAPK inhibitor pyridinyl imidazol SB203580 (Calbiochem; 5-20 μM) were dissolved in DMSO. The cGMP analogue 8-bromo-cGMP sodium salt (8-Br-cGMP; Sigma-Aldrich, St. Louis, Mo.; 10-100 μM) and the PKG inhibitor (10-100 μM; Alexis Biochemicals) were dissolved in water. Cell counts and [^3H] thymidine incorporation. Rat and mouse SMC were isolated and cultured as described in Peyton et al. (Blood 99:4443-4448 (2002)). Proliferation assays were carried out as described in Petkova et al. (J Biol. Chem. 276:7932-7936 (2001)). For [^3H] thymidine incorporation studies, cells were serum-starved overnight and then stimulated with 10% serum containing 5 μCi/ml [^3H] thymidine (New England Nuclear, Boston Mass.). [^3H]thymidine incorporation was measured by scintillation spectroscopy and presented as mean counts/min/well. Histomorphometric analysis. Aortic grafts and carotid arteries were harvested at 56 and 14 days respectively. Vessels were fixed, embedded, and serially sectioned (5μ) in toto. Every third slide was stained with Hematoxylin and Eosin (H&E) for histomorphometric analyses. In both models, one or two images per slide at a resolution of 1520×1080 pixels were captured at a magnification of 25× with a Zeiss microscope (Axioskop, Iowa City, Iowa), RT color SPOT (Diagnostic Instrument, Inc., Saint Joseph, Mich.) and Windows NT (Compaq Computer) using Adobe Photoshop version 5.5 software. Areas from eight to ten captured images were calculated using digital imaging software as number of pixels corresponding to those areas. Twenty-four to forty-eight sections from each group were statistically analyzed with SPSS software version 10. Immunostaining and cell population histomorphometric analysis. […]

p38 MAPK = assay: Western blot of phosphorylated p38 MAPK in SMC; assay type: cell-based, mouse
From the text: as §2, with “The cGMP analogue 8-bromo-cGMP sodium salt (8-Br-cGMP; Sigma-Aldrich, St. Louis, Mo.; 10-100 μM) and the PKG inhibitor (10-100 μM; Alexis Biochemicals) were dissolved in water. Cell counts and [^3H] thymidine incorporation. Rat and mouse SMC were isolated and cultured as described in Peyton et al. (Blood 99:4443-4448 (2002)). Proliferation assays were carried out as described in Petkova et al. (J Biol. Chem. 276:7932-7936 (2001)). For [^3H] thymidine incorporation studies, cells were serum-starved overnight and then stimulated with 10% serum containing 5 μCi/ml [^3H] thymidine (New England Nuclear, Boston Mass.).” left out, “Histomorphometric analysis. Aortic grafts and carotid arteries were harvested at 56 and 14 days respectively. Vessels were fixed, embedded, and serially sectioned (5μ) in toto. Every third slide was stained with Hematoxylin and Eosin (H&E) for histomorphometric analyses. In both models, one or two images per slide at a resolution of 1520×1080 pixels were captured at a magnification of 25× with a Zeiss microscope (Axioskop, Iowa City, Iowa), RT color SPOT (Diagnostic Instrument, Inc., Saint Joseph, Mich.) and Windows NT (Compaq Computer) using Adobe Photoshop version 5.5 software.” left out, “10.” for “10. Immunostaining and cell population histomorphometric analysis.”

ATF-2 = assay: Western blot of phosphorylated ATF-2 in SMC; assay type: cell-based; conditions: SMC exposed to CO (250 ppm)
From the text: as §1

rat SMC = assay: SMC proliferation, cell counts; assay type: cell-based
From the text: as §1

[1] = system: intimal hyperplasia in Brown Norway aortic segments transplanted into Lewis rats; assay: Aortic transplant model, histomorphometric analysis of intimal hyperplasia; assay type: in vivo, rat; conditions: CO 250 ppm after transplantation and for 56 days; vs air-exposed recipients; day 56; p<0.001
From the text: as §1

SMC = assay: Trypan blue and propidium iodide exclusion analyses; assay type: cell-based; conditions: SMC exposed to CO
From the text: as §1

## [C-]#[O+] [CO, carbon monoxide]
JNK-1 and -2
  Activation of JNK-1 and -2: induced activation
p21Cip1; CO 250 ppm, increased by 4 hours, basal at 24 hours
  Time of maximal p21Cip1 expression after CO exposure: 16 h
p21Cip1; SMC exposed to CO (250 ppm)
  p21Cip1 protein expression: up-regulated
p38 MAPK; CO 250 ppm
  Time of peak p38 MAPK phosphorylation/activation after exposure: four
p38 MAPK; SMC exposed to CO (250 ppm)
  p38 MAPK phosphorylation/activation: activated
ATF-2
  ATF-2 activation: activation
Rat SMC; cessation of CO exposure (250 ppm) on day 6
  Reversibility of the anti-proliferative effect: reversible
Rat SMC; exposure to CO (1000 ppm, FIG. 4B)
  SMC proliferation: suppressed
[1]
  Intimal hyperplasia, reduction versus control: 61.4±12.9%
SMC
  Cell death accompanying inhibition of SMC proliferation: not associated with cell death
